≈ marks a conversion by molar mass, not a printed value. Values belong to the molecule of their own block, whether it stands above or below them.
Tests used:
[1] = biological target: T1, Human immunodeficiency virus type 1 reverse transcriptase (Human immunodeficiency virus 1, UniProt Q72547); test: Inhibition of wild type HIV-1 reverse transcriptase
[2] = tested on: Human immunodeficiency virus 1; test: Antiviral activity against HIV1 3B infected in human C8166 cells; type: functional, organism-based
[3] = Selectivity index, ratio of CC50 for human C8166 cells to EC50 for HIV1 3B infected in human C8166 cells; type: toxicity, cell-based; settings: read-out: Selectivity Index
[4] = tested on: Human immunodeficiency virus 1; test: Antiviral activity against HIV1 3B infected in human MT4 cells; type: functional, organism-based; settings: Human immunodeficiency virus 1, 3B
[5] = tested on: Human immunodeficiency virus; test: Antiviral activity against HIV; type: functional, organism-based; settings: Human immunodeficiency virus 1
[6] = tested on: Human immunodeficiency virus 1; test: Antiviral activity against wild type HIV1 3B infected in human MT4 cells using [3H]dGTP by radio-labelled binding assay; type: functional, organism-based; settings: Human immunodeficiency virus 1, 3B
[7] = tested on: Human immunodeficiency virus; test: Antiviral activity against HIV infected in human HeLa cells expressing CD4-LTR-beta-gal; type: functional, organism-based; settings: Human immunodeficiency virus 1, HeLa
[8] = tested on: HeLa; test: Cytotoxicity against human HeLa cells expressing CD4-LTR-beta-gal assessed as reduction in cell viability; type: functional
[9] = Inhibition of HIV reverse transcriptase; parameters: species or system Human immunodeficiency virus
[10] = biological target: T1, Human immunodeficiency virus type 1 reverse transcriptase; test: Inhibition of HIV-1 reverse transcriptase after 1 hr by ELISA
[11] = tested on: C8166; test: Cytotoxicity against human C8166 cells assessed as reduction in cell viability; type: functional, cell-based
[12] = tested on: Human immunodeficiency virus 1; test: Antiviral activity against wild type HIV1 3B infected in human TZM-bl cells; type: functional, organism-based; settings: Human immunodeficiency virus 1, 3B
[13] = tested on: TZM; test: Cytotoxicity against human TZM-bl cells; type: functional
[14] = tested on: Human immunodeficiency virus 1; test: Antiviral activity against HIV1; type: functional, organism-based
[15] = Selectivity index, ratio of CC50 for human TZM-bl cells to EC50 for wild type HIV1 3B infected in human TZM-bl cells; type: toxicity, cell-based; settings: read-out: Selectivity Index
[16] = tested on: Human immunodeficiency virus 1; test: Antiviral activity against wild type HIV1 3B infected in human TZM-bl cells after 4 days by ELISA; type: functional, organism-based; settings: Human immunodeficiency virus 1, 3B, 96 h
[17] = tested on: Human immunodeficiency virus 1; test: Antiviral activity against wild type HIV1; type: functional, organism-based
[18] = tested on: TZM; test: Cytotoxicity against human TZM-bl cells assessed as reduction in cell viability after 4 hrs by MTT assay; type: functional
[19] = tested on: Human immunodeficiency virus 1; test: Antiviral activity against wild type HIV1 3B infected in human TZM-bl cells assessed as viral infection at 50 ug/ml after 1 hr relative to control; type: functional; settings: Human immunodeficiency virus 1, 3B
[20] = tested on: Human immunodeficiency virus 2; test: Antiviral activity against HIV2 ROD after 48 hrs […]; type: functional, organism-based; settings: Human immunodeficiency virus 2, ROD
[21] = tested on: Human immunodeficiency virus 1; test: Antiviral activity against HIV1 3B after 48 hrs […]; type: functional, organism-based; settings: Human immunodeficiency virus 1, 3B
[22] = Human immunodeficiency virus 1, 3B, C8166

EC50 [2]: 0.012 to 101 nM
SMILES: CC(C)c1c(CC2CCCCC2)nc(SCC(=O)c2ccccc2)[nH]c1=O
selectivity ratio [3]: 691 to 6.32e+06

EC50 [2, 22]: 0.012 nM
SMILES: CCc1c(CC2CCCCC2)nc(SCC(=O)c2ccccc2)[nH]c1=O
selectivity ratio [3]: 6.32e+06

EC50 [4]: 2 nM
SMILES: Cc1cc(C)cc(S(=O)(=O)c2c(C(=O)NCc3ccncc3)[nH]c3ccc(Cl)cc23)c1

IC50 [7]: 50 nM
SMILES: O=C(O)/C(O)=C/C(=O)c1cn(Cc2ccc(F)cc2)c2cc(N3CCN(CCCCl)CC3)ccc2c1=O
CC50 [8]: > 50 µM

IC50 [9]: 77.5 µM
SMILES: COc1ccc(N2CCN(C(=O)CN(Cc3ccccc3)c3ccc(Cl)cc3)CC2)cc1

EC50 [12]: 45 nM
SMILES: COC(=O)C(N)(c1c[nH]c2ccc(F)cc12)C(F)(F)F (configuration not stated)
CC50 [13]: 49.3 µM

EC50 [12]: 60 nM
SMILES: CCOC(=O)C(N)(c1c[nH]c2cccc(C(=O)OC)c12)C(F)(F)F (configuration not stated)
CC50 [13]: 110 µM

EC50 [14]: 150 nM
SMILES: COc1ccc(CNC(=O)c2cc(C(C)(C)NC(=O)OCc3ccccc3)cc(O)c2O)cc1

IC50 [14]: 6680 nM
SMILES: O=c1[nH]c(=O)n([C@H]2C[C@H](O)[C@@H](CO)O2)cc1C#CCOc1ccc(OCc2ccccc2)cc1

More lines, now with the values behind:

SMILES: COC(=O)CCCC=C(c1cc(Cl)c(OC)c(C(=O)SC)c1)c1cc(Cl)c(OC)c(C(=O)SC)c1
EC50 [1]: 1600 nM

SMILES: CC(C)c1c(CC2CCCCC2)nc(SCc2ccccc2)[nH]c1=O
EC50 [2, 22]: 0.025 nM
selectivity ratio [3]: 691 to 6.32e+06

SMILES: Cc1cc(C)cc(Cn2c(=O)cc(N)n(Cc3ccncc3)c2=O)c1
EC50 [5]: 30 nM

SMILES: Cc1cccc(N2C(=O)CSC2c2c(F)cccc2F)n1 (configuration not stated)
IC50 [6]: 82 nM

SMILES: O=C(CN(Cc1ccccc1)c1ccc(Cl)cc1)N1CCN(c2cccc(Cl)c2Cl)CC1
IC50 [9]: 12.3 µM

SMILES: COc1ccccc1N1CCN(C(=O)CN(Cc2ccccc2)c2ccc(Cl)cc2)CC1
IC50 [9]: 16.3 µM

SMILES: O=C(CN(Cc1ccccc1)c1ccc(Cl)cc1)N1CCN(C(c2ccccc2)c2ccccc2)CC1
IC50 [9]: > 100 µM

SMILES: O=C(CN(Cc1ccccc1)c1ccc(Cl)cc1)N1CCN(c2ccc([N+](=O)[O-])cc2)CC1
IC50 [9]: 14.2 µM

SMILES: COc1ccc2c(c1)CCCN2CCC(=O)N1CCN(c2cccc(Cl)c2)CC1
IC50 [10]: 18.6 µM
IC50 [11]: 97.5 µg/mL (≈ 236 µM)
selectivity ratio [3]: 5.3

SMILES: CC(C)(C)OC(=O)n1ccc2ccc(-c3ccc4ccn(Cc5cccc(C(=O)O)c5)c4c3)cc21
IC50 [14]: 800 nM

SMILES: O=c1[nH]c(=O)n([C@H]2C[C@H](O)[C@@H](CO)O2)cc1CCCOc1ccc(OCc2ccccc2)cc1
IC50 [14]: 2180 nM

SMILES: CC(C)(NC(=O)OCc1ccccc1)c1cc(O)c(O)c(C(=O)NCc2ccccc2Cl)c1
EC50 [14]: 140 nM

SMILES: O=C1OC(c2ccccc2Cl)C(Cl)c2ccccc21 (configuration not stated)
selectivity ratio [15]: 11.1
EC50 [16]: 12.3 µM
CC50 [13]: 136 µM

SMILES: N#Cc1ccc(Nc2nccc(Oc3ccccc3F)n2)cc1
EC50 [17]: 5.8 nM

SMILES: NC1=CNC(=O)/C1=N/Nc1ccc(Br)cc1
Activity [18]: 40%
inhibition at 50 µg/mL [19]: 98%

SMILES: O=C(CSC1[Se]N=NC1c1ccc(Cl)c(Cl)c1)Nc1ccccc1Br (configuration not stated)
EC50 [20]: > 23.6 µM
EC50 [21]: > 23.6 µM

Reference: ChEMBL document CHEMBL4402520, “Synthetic routes and structure-activity relationships (SAR) of anti-HIV agents: A key review” (Eur J Med Chem, 2019)
